Data from ChEMBL document CHEMBL5042507, “One-Pot Procedure for the Synthesis of Asymmetric Substituted Ureido Benzene Sulfonamides as Effective Inhibitors of Carbonic Anhydrase Enzymes” (J Med Chem, 2022).
Active and inactive are the calls of the source. The rule behind the calls is not given here.

Legend:
Carbonic anhydrase 1 = Carbonic anhydrase 1 (Homo sapiens, UniProt P00915)
Description: Inhibition of human CA1 preincubated for 15 mins by phenol red dye based stopped flow CO2 hydration assay

Carbonic anhydrase 9 = Carbonic anhydrase 9 (Homo sapiens, UniProt Q16790)
Description: Inhibition of human CA9 preincubated for 15 mins by phenol red dye based stopped flow CO2 hydration assay

Carbonic anhydrase 12 = Carbonic anhydrase 12 (Homo sapiens, UniProt O43570)
Carbonic anhydrase 12, sequence (O43570 whole entry): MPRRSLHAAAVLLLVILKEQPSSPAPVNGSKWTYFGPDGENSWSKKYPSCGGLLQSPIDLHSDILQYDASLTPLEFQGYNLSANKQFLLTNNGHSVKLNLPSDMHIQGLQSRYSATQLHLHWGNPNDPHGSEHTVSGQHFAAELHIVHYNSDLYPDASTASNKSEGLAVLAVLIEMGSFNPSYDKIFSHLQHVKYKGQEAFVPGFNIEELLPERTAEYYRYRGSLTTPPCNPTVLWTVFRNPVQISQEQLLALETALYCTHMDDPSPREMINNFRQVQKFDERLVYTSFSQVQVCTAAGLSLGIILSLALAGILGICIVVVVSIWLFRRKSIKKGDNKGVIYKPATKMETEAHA
Description: Inhibition of human CA12 preincubated for 15 mins by phenol red dye based stopped flow CO2 hydration assay

Oryctolagus cuniculus [1] = assay: Antiglaucoma activity in New Zealand albino rabbit assessed as reduction in intraocular pressure administered topically as eye drops measured after 4 hrs by pneumotonometer-analysis; assay type: functional
Oryctolagus cuniculus [2] = assay: Antiglaucoma activity in New Zealand albino rabbit assessed as reduction in carbomer-induced intraocular pressure administered topically as eye drops measured at 60 mins post-drug administration by pneumotonometer-analysis; assay type: functional; details: 1 h
Oryctolagus cuniculus [3] = assay: Antiglaucoma activity in New Zealand albino rabbit assessed as reduction in carbomer-induced intraocular pressure administered topically as eye drops measured at 60 to 120 mins post administration by pneumotonometer-analysis; assay type: functional; details: time 60-120 min
Oryctolagus cuniculus [4] = assay: Antiglaucoma activity in New Zealand albino rabbit assessed as reduction in carbomer-induced intraocular pressure administered topically as eye drops measured at 240 mins post-drug administration by pneumotonometer-analysis; assay type: functional; details: 4 h

Carbonic anhydrase 1, sequence (P00915 whole entry): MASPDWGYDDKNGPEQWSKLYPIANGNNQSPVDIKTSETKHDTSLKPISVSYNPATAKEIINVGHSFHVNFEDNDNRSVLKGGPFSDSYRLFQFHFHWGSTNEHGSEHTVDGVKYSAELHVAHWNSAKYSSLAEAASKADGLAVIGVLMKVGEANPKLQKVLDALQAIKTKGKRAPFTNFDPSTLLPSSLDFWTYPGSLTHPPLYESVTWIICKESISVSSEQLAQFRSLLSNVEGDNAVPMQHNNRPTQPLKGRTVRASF

Row | Compound | Ki (Carbonic anhydrase 1) [nM] | Ki (Carbonic anhydrase 9) [nM] | Ki (Carbonic anhydrase 12) [nM] | Activity (Oryctolagus cuniculus [1]) | Activity (Oryctolagus cuniculus [2]) [mmHg] | Activity (Oryctolagus cuniculus [3]) | Activity (Oryctolagus cuniculus [4]) [mmHg]
1 | COC(=O)C(CC(C)C)NC(=O)Nc1ccc(S(N)(=O)=O)cc1 (stereo not given) | 226 | 937 | 586 | – | – | – | –
2 | COC(=O)[C@H](Cc1ccccc1)NC(=O)Nc1ccc(S(N)(=O)=O)cc1 | 62.3 | 126 | 42.6 | 27 mmHg | 36 | – | –
3 | NS(=O)(=O)c1ccc(NC(=O)NCC(=O)NCC(=O)O)cc1 | 7570 | 1570 | 426 | Active | – | Active | 19
4 | CN(Cc1ccccc1)C(=O)Nc1cccc(S(N)(=O)=O)c1 | – | 1440 | – | Active | – | 11 mmHg | –
5 | COC(=O)CNC(=O)CNC(=O)Nc1cccc(S(N)(=O)=O)c1 | 7190 | 691 | 344 | – | – | – | –
6 | COC(=O)CCC(NC(=O)Nc1ccc(S(N)(=O)=O)cc1)C(=O)OC (stereo not given) | 62 | 596 | 726 | – | – | – | –
7 | NS(=O)(=O)c1cccc(NC(=O)NCCc2ccccc2)c1 | 296 | 1330 | 487 | – | – | – | –
8 | COC(=O)CC(NC(=O)Nc1cccc(S(N)(=O)=O)c1)C(=O)OC (stereo not given) | 8380 | 860 | – | – | – | – | –
9 | COC(=O)C(CCSC)NC(=O)Nc1cccc(S(N)(=O)=O)c1 (stereo not given) | 1730 | 1380 | 426 | – | – | – | –
10 | COC(=O)C(CC(C)C)NC(=O)Nc1cccc(S(N)(=O)=O)c1 (stereo not given) | 5280 | 839 | 589 | – | – | – | –
11 | COC(=O)CCCNC(=O)Nc1cccc(S(N)(=O)=O)c1 | 8280 | 746 | 494 | – | – | – | –
12 | NS(=O)(=O)c1cccc(NC(=O)Nc2ccccc2)c1 | 449 | 1800 | 356 | – | – | – | –
13 | CCCN(CCC)C(=O)Nc1cccc(S(N)(=O)=O)c1 | – | 2190 | – | – | – | – | –
14 | NS(=O)(=O)c1cccc(NC(=O)N2CCCCC2)c1 | 178 | 541 | 278 | – | – | – | –
15 | CCN(CC)C(=O)Nc1cccc(S(N)(=O)=O)c1 | 2880 | 1730 | 375 | – | – | – | –
16 | CCC(C)NC(=O)Nc1cccc(S(N)(=O)=O)c1 (stereo not given) | 69.9 | 2120 | 600 | – | – | – | –
17 | CC(C)NC(=O)Nc1ccc(S(N)(=O)=O)cc1 | 438 | 640 | 593 | – | – | – | –
18 | COC(=O)CNC(=O)Nc1cccc(S(N)(=O)=O)c1 | 6070 | 825 | – | – | – | – | –
19 | CC(C)NC(=O)Nc1cccc(S(N)(=O)=O)c1 | – | 2170 | 612 | – | – | – | –
20 | CCN[C@H]1C[C@H](C)S(=O)(=O)c2sc(S(N)(=O)=O)cc21 [DORZOLAMIDE] | – | – | – | 24 mmHg | – | – | –
21 | NS(=O)(=O)c1cccc(NC(=O)Nc2cccc(C(F)(F)F)c2)c1 | 2060 | 1600 | 490 | – | – | – | –
22 | CC(C)CN(CC(C)C)C(=O)Nc1cccc(S(N)(=O)=O)c1 | – | 1790 | – | – | – | – | –
23 | COC(=O)C(Cc1ccccc1)NC(=O)Nc1cccc(S(N)(=O)=O)c1 (stereo not given) | 809 | 943 | 275 | Active | – | 16 mmHg | –
24 | CN(CCc1ccccc1)C(=O)Nc1cccc(S(N)(=O)=O)c1 | – | 1180 | – | – | – | – | –
25 | NS(=O)(=O)c1cccc(NC(=O)Nc2ccccc2F)c1 | 737 | 1480 | 512 | – | – | – | –
26 | CCCCCCN(CCCCCC)C(=O)Nc1cccc(S(N)(=O)=O)c1 | – | 2110 | – | – | – | – | –
27 | COC(=O)CNC(=O)Nc1ccc(S(N)(=O)=O)cc1 | – | 1920 | – | – | – | – | –
28 | CN(C)C(=O)Nc1ccc(S(N)(=O)=O)cc1 | 483 | 1400 | 705 | – | – | – | –
29 | CC(C)N(C(=O)Nc1cccc(S(N)(=O)=O)c1)C(C)C | – | 2090 | – | – | – | – | –
30 | CCC(C)NC(=O)Nc1ccc(S(N)(=O)=O)cc1 (stereo not given) | 669 | 507 | 637 | – | – | – | –
